Tests used:
Format in all cases: in vivo
[1] = system: Viola tricolor; test: Post-emergence herbicidal action; conditions: 1280 g/ha, rated visually after about 3 weeks vs untreated controls
Procedure, shortened: (§1)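 Greenhouse post-emergence spray at one-leaf stage, 1280 g/ha, 600 l/ha water with 0.5% additive; efficacy rated visually after roughly 3 weeks, 0% meaning like controls and 100% meaning dead plants.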

[2] = system: Abutilon theophrasti; test: Pre-emergence herbicidal action; conditions: 1280 g/ha, scored visually after about 3 weeks vs untreated controls
Procedure, shortened: (§2)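 Covered seeds received aqueous suspension or emulsion of formulated compound at 1280 g/ha with 0.5% additive and 600 l/ha water. Pots grew under good greenhouse conditions, and after approximately 3 weeks the effect was estimated visually as a percentage, 100% denoting plants that died.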

[3] = system: Alopecurus myosuroides; test: Pre-emergence herbicidal action; conditions: 1280 g/ha, scored visually after about 3 weeks vs untreated controls
Procedure, shortened: as §2

[4] = system: Amaranthus retroflexus; test: Pre-emergence herbicidal action; conditions: 1280 g/ha, scored visually after about 3 weeks vs untreated controls
Procedure, shortened: as §2

[5] = system: Echinochloa crus-galli; test: Pre-emergence herbicidal action; conditions: 1280 g/ha, scored visually after about 3 weeks vs untreated controls
Procedure, shortened: as §2

[6] = system: Matricaria inodora; test: Pre-emergence herbicidal action; conditions: 1280 g/ha, scored visually after about 3 weeks vs untreated controls
Procedure, shortened: as §2

[7] = system: Pharbitis purpurea; test: Pre-emergence herbicidal action; conditions: 1280 g/ha, scored visually after about 3 weeks vs untreated controls
Procedure, shortened: as §2

[8] = system: Polygonum convolvulus; test: Pre-emergence herbicidal action; conditions: 1280 g/ha, scored visually after about 3 weeks vs untreated controls
Procedure, shortened: as §2

[9] = system: Setaria viridis; test: Pre-emergence herbicidal action; conditions: 1280 g/ha, scored visually after about 3 weeks vs untreated controls
Procedure, shortened: as §2

[10] = system: Stellaria media; test: Pre-emergence herbicidal action; conditions: 1280 g/ha, scored visually after about 3 weeks vs untreated controls
Procedure, shortened: as §2

[11] = system: Viola tricolor; test: Pre-emergence herbicidal action; conditions: 1280 g/ha, scored visually after about 3 weeks vs untreated controls
Procedure, shortened: as §2

[12] = system: Abutilon theophrasti; test: Post-emergence herbicidal action; conditions: 1280 g/ha, rated visually after about 3 weeks vs untreated controls
Procedure, shortened: as §1

[13] = system: Alopecurus myosuroides; test: Post-emergence herbicidal action; conditions: 1280 g/ha, rated visually after about 3 weeks vs untreated controls
Procedure, shortened: as §1

[14] = system: Amaranthus retroflexus; test: Post-emergence herbicidal action; conditions: 1280 g/ha, rated visually after about 3 weeks vs untreated controls
Procedure, shortened: as §1

[15] = system: Polygonum convolvulus; test: Post-emergence herbicidal action; conditions: 1280 g/ha, rated visually after about 3 weeks vs untreated controls
Procedure, shortened: as §1

[16] = system: Stellaria media; test: Post-emergence herbicidal action; conditions: 1280 g/ha, rated visually after about 3 weeks vs untreated controls
Procedure, shortened: as §1

[17] = system: Avena fatua; test: Pre-emergence herbicidal action; conditions: 1280 g/ha, scored visually after about 3 weeks vs untreated controls
Procedure, shortened: as §2

[18] = system: Hordeum murinum; test: Pre-emergence herbicidal action; conditions: 1280 g/ha, scored visually after about 3 weeks vs untreated controls
Procedure, shortened: as §2

[19] = system: Lolium rigidum; test: Pre-emergence herbicidal action; conditions: 1280 g/ha, scored visually after about 3 weeks vs untreated controls
Procedure, shortened: as §2

[20] = system: Echinochloa crus-galli; test: Post-emergence herbicidal action; conditions: 1280 g/ha, rated visually after about 3 weeks vs untreated controls
Procedure, shortened: as §1

[21] = system: Pharbitis purpurea; test: Post-emergence herbicidal action; conditions: 1280 g/ha, rated visually after about 3 weeks vs untreated controls
Procedure, shortened: as §1

[22] = system: Veronica persica; test: Pre-emergence herbicidal action; conditions: 1280 g/ha, scored visually after about 3 weeks vs untreated controls
Procedure, shortened: as §2

[23] = system: Setaria viridis; test: Post-emergence herbicidal action; conditions: 1280 g/ha, rated visually after about 3 weeks vs untreated controls
Procedure, shortened: as §1

[24] = system: Veronica persica; test: Post-emergence herbicidal action; conditions: 1280 g/ha, rated visually after about 3 weeks vs untreated controls
Procedure, shortened: as §1

SMILES	herbicidal activity on Viola tricolor [1]	herbicidal activity on Abutilon theophrasti [2]	herbicidal activity on Alopecurus myosuroides [3]	herbicidal activity on Amaranthus retroflexus [4]	herbicidal activity on Echinochloa crus-galli [5]	herbicidal activity on Matricaria inodora [6]	herbicidal activity on Pharbitis purpurea [7]	herbicidal activity on Polygonum convolvulus [8]	herbicidal activity on Setaria viridis [9]	herbicidal activity on Stellaria media [10]	herbicidal activity on Viola tricolor [11]	herbicidal activity on Abutilon theophrasti [12]	herbicidal activity on Alopecurus myosuroides [13]	herbicidal activity on Amaranthus retroflexus [14]	herbicidal activity on Polygonum convolvulus [15]	herbicidal activity on Stellaria media [16]	herbicidal activity on Hordeum murinum [18]	herbicidal activity on Lolium rigidum [19]	herbicidal activity on Veronica persica [22]	herbicidal activity on Setaria viridis [23]	other results
CCn1cc(Sc2ccc(F)cc2)c(Oc2ncccn2)n1 [Example I-038]	90%	80%	80%	100%	80%	90%	80%	80%	100%	100%	100%	–	–	–	–	–	–	–	–	–	–
CCc1c(Sc2ccc(F)c(F)c2)c(Oc2ncccn2)nn1C [Example I-062]	100%	100%	100%	100%	100%	100%	80%	100%	100%	100%	100%	100%	80%	100%	90%	90%	100%	80%	–	–	herbicidal activity on Avena fatua [17]: 80%
CCc1c(Sc2ccc(F)cc2F)c(Oc2ncc(F)cn2)nn1C [Example I-094]	100%	100%	100%	100%	100%	100%	100%	90%	100%	100%	100%	90%	–	100%	90%	100%	100%	80%	100%	–	herbicidal activity on Echinochloa crus-galli [20]: 80%; herbicidal activity on Pharbitis purpurea [21]: 100%
Fc1ccc(Sc2c(Oc3ncccn3)nn3c2CCC3)cc1 [Example I-097]	80%	100%	100%	90%	100%	100%	90%	100%	100%	100%	100%	90%	90%	80%	–	–	90%	–	90%	90%	herbicidal activity on Echinochloa crus-galli [20]: 100%; herbicidal activity on Pharbitis purpurea [21]: 90%; herbicidal activity on Avena fatua [17]: 80%
CCc1c(Sc2ccc(F)cc2)c(Oc2ncc(F)cn2)nn1C [Example I-183]	100%	100%	100%	100%	100%	100%	–	100%	100%	100%	100%	90%	90%	100%	90%	90%	100%	100%	–	100%	herbicidal activity on Echinochloa crus-galli [20]: 90%; herbicidal activity on Pharbitis purpurea [21]: 100%; herbicidal activity on Veronica persica [24]: 90%
COc1cnc(Oc2nn(C)c(C)c2Sc2ccc(F)cc2F)nc1 [Example I-205]	90%	100%	100%	100%	100%	100%	100%	100%	100%	100%	100%	90%	–	90%	–	–	100%	100%	100%	80%	herbicidal activity on Avena fatua [17]: 100%
CCn1cc(Sc2ccc(F)cc2)c(Oc2ncc(F)cn2)n1 [Example I-211]	80%	90%	90%	100%	90%	90%	80%	90%	100%	100%	100%	–	–	–	100%	100%	–	100%	100%	90%	–

Reference: US20200181117A1, “SUBSTITUTED 3-HETEROARYLOXY-1H-PYRAZOLES AND SALTS THEREOF AND THEIR USE AS HERBICIDAL ACTIVE SUBSTANCES” (BAYER CROPSCIENCE AKTIENGESELLSCHAFT, priority 2017, published 2020)
